Results as given in ChEMBL document CHEMBL3397041, “Schiff's bases of quinazolinone derivatives: Synthesis and SAR studies of a novel series of potential anti-inflammatory and antioxidants” (Bioorg Med Chem Lett, 2015).

Legend:
[1] = Antioxidant activity assessed as DPPH scavenging activity after 30 mins by spectrophotometry; assay type: physicochemical
[2] = Antioxidant activity assessed as DMPD scavenging activity after 15 mins by spectrophotometry; assay type: physicochemical
[3] = Antioxidant activity assessed as ABTS scavenging activity after 6 mins by spectrophotometry; assay type: physicochemical
[4] = Antiinflammatory activity in human erythrocytes assessed as inhibition of hypotonic solution-induced hemolysis after 10 mins by spectrophotometry; assay type: functional, cell-based; conditions: erythrocyte

Row | Structure (SMILES) | IC50 [1] | IC50 [2] | IC50 [3] | IC50 [4]
1 | O=C(O)CCc1nc(O)c2ccccc2n1 | 1100 uM/ml |  |  | 
2 | O=C(O)CCCc1nc2ccccc2c(=O)[nH]1 | 1250 uM/ml |  |  | 
3 | COC(=O)CCc1nc2ccccc2c(=O)[nH]1.Cl | 862 uM/ml |  |  | 1163 uM/ml
4 | COC(=O)CCCc1nc2ccccc2c(=O)[nH]1.Cl | 772 uM/ml |  | 280 uM/ml | 975 uM/ml
5 | O=C(CCCc1nc2ccccc2c(=O)[nH]1)N/N=C/c1ccccc1 | 568 uM/ml |  | 240 uM/ml | 
6 | O=C(CCCc1nc2ccccc2c(=O)[nH]1)N/N=C/c1ccc(Cl)cc1 | 353 uM/ml |  |  | 67 uM/ml
7 | O=C(CCc1nc2ccccc2c(=O)[nH]1)N/N=C/c1ccc(O)cc1 | 238 uM/ml | 300 uM/ml | 105 uM/ml | 
8 | COc1ccc(/C=N/NC(=O)CCc2nc3ccccc3c(=O)[nH]2)cc1 | 214 uM/ml |  | 75 uM/ml | 
9 | COc1ccc(/C=N/NC(=O)CCCc2nc3ccccc3c(=O)[nH]2)cc1 | 247 uM/ml | 280 uM/ml | 180 uM/ml | 
10 | O=C(CCc1nc2ccccc2c(=O)[nH]1)N/N=C/c1ccc(O)c(O)c1 | 113 uM/ml | 105 uM/ml | 40 uM/ml | 255 uM/ml
11 | COc1cc(/C=N/NC(=O)CCCc2nc3ccccc3c(=O)[nH]2)ccc1O | 236 uM/ml | 280 uM/ml | 115 uM/ml | 
12 | COc1cc(/C=N/NC(=O)CCCc2nc3ccccc3c(=O)[nH]2)cc(OC)c1O | 97 uM/ml | 225 uM/ml | 135 uM/ml | 524 uM/ml
13 | COc1cc(/C=N/NC(=O)CCc2nc3ccccc3c(=O)[nH]2)cc(O)c1O | 104 uM/ml | 50 uM/ml | 40 uM/ml | 261 uM/ml
14 | COc1cc(/C=N/NC(=O)CCCc2nc3ccccc3c(=O)[nH]2)cc(O)c1O | 88 uM/ml | 80 uM/ml | 50 uM/ml | 277 uM/ml
15 | O=C(CCc1nc2ccccc2c(=O)[nH]1)N/N=C/c1cc(O)c(O)c(O)c1 | 81 uM/ml | 45 uM/ml | 35 uM/ml | 203 uM/ml
16 | O=C(CCCc1nc2ccccc2c(=O)[nH]1)N/N=C/c1cc(O)c(O)c(O)c1 | 78 uM/ml | 45 uM/ml | 40 uM/ml | 183 uM/ml
17 | O=C1O[C@H]([C@@H](O)CO)C(O)=C1O [ASCORBIC ACID] |  | 140 uM/ml | 65 uM/ml | 
18 | CC(=O)Oc1ccccc1C(=O)O [ASPIRIN] |  |  |  | 166 uM/ml
19 | O=C(O)c1cc(O)c(O)c(O)c1 [GALLIC ACID] |  | 100 uM/ml | 60 uM/ml | 

More lines, main results first:

Row | IC50 [1] | IC50 [2] | IC50 [3] | Structure (SMILES) | IC50 [4]
20 | 126 uM/ml | 275 uM/ml | 105 uM/ml | COc1cc(/C=N/NC(=O)CCc2nc3ccccc3c(=O)[nH]2)cc(OC)c1O | 530 uM/ml
21 | 734 uM/ml |  | 265 uM/ml | O=C(CCc1nc2ccccc2c(=O)[nH]1)N/N=C/c1ccccc1 | 
22 | 381 uM/ml |  | 185 uM/ml | O=C(CCc1nc2ccccc2c(=O)[nH]1)N/N=C/c1ccc(Cl)cc1 | 84 uM/ml
23 | 328 uM/ml |  | 220 uM/ml | O=C(CCc1nc2ccccc2c(=O)[nH]1)N/N=C/c1ccc([N+](=O)[O-])cc1 | 54 uM/ml
24 | 316 uM/ml |  | 270 uM/ml | O=C(CCCc1nc2ccccc2c(=O)[nH]1)N/N=C/c1ccc([N+](=O)[O-])cc1 | 52 uM/ml
25 | 214 uM/ml |  | 170 uM/ml | O=C(CCCc1nc2ccccc2c(=O)[nH]1)N/N=C/c1ccc(O)cc1 | 
26 | 95 uM/ml | 75 uM/ml | 50 uM/ml | O=C(CCCc1nc2ccccc2c(=O)[nH]1)N/N=C/c1ccc(O)c(O)c1 | 300 uM/ml
27 | 204 uM/ml | 290 uM/ml | 95 uM/ml | COc1cc(/C=N/NC(=O)CCc2nc3ccccc3c(=O)[nH]2)ccc1O | 
28 | 85 uM/ml | 80 uM/ml | 55 uM/ml | COc1cc(/C=N/NC(=O)CCc2nc3ccccc3c(=O)[nH]2)cc(OC)c1OC | 682 uM/ml
29 | 106 uM/ml | 85 uM/ml | 60 uM/ml | COc1cc(/C=N/NC(=O)CCCc2nc3ccccc3c(=O)[nH]2)cc(OC)c1OC | 613 uM/ml
30 | 114 uM/ml |  |  | Cc1cc(C(C)(C)C)c(O)c(C(C)(C)C)c1 [BUTYLATED HYDROXYTOLUENE] | 
